# Test results reported in patent publication US20160002710A1, “REPORTER PHAGE AND […] BACTERIA” (priority 2014, published 2016).
# Experiments:
# Type in all cases: cell-based
# S. flexneri ATCC 25875 [1] = assay: microbe, parasite or virus in culture; conditions: Shigella flexneri, ATCC25875; growth (A625) after 20 h at 35° C.; read-out: minimum inhibitory concentration
# Procedure: (§1) Cells (5×10^5 CFU/mL) and antibiotics were prepared in cation-adjusted Mueller Hinton broth according to CLSI methodology. […] The same Shigella inoculum was grown for 5 h at 35° C. in the presence of antibiotics, infected with Shfl::luxAB, and bioluminescence assayed after 20 min.
# (§2) Therefore, the ability of Shfl25875::luxAB to confer bioluminescence signal to Shigella spp. in the presence of antibiotics was compared to the standard CLSI broth microdilution method. […] Cells were incubated with a range of antibiotic concentrations in microtiter plates, incubated at 35° C., and assessed for growth (A625) after 20 h as per the CLSI protocol, or bioluminescence following infection by Shfl25875::luxAB.
# S. flexneri ATCC 25875 [2] = assay: Reporter phage (Shfl25875::luxAB) bioluminescence antibiotic susceptibility assay; conditions: 5 h growth with antibiotic, infection with reporter phage, read after 20 min
# Procedure: as §1, §2
# E. coli ATCC 25922 = assay: microbe, parasite or virus in culture; conditions: Escherichia coli, ATCC25922; cation-adjusted Mueller Hinton broth, 35° C., 20 h; within the acceptable range
# Procedure: as §1
compound,measurement,setting,value
CC1(C)S[C@@H]2[C@H](NC(=O)[C@H](N)c3ccccc3)C(=O)N2[C@H]1C(=O)O [ampicillin],MIC,S. flexneri ATCC 25875 [1],1 µg/mL
same,Bioluminescence at antibiotic concentrations at the minimum inhibitory concentration or higher,S. flexneri ATCC 25875 [2],at or close to background
same,MIC,E. coli ATCC 25922,2 µg/mL
